Experimental data taken from ChEMBL document CHEMBL4385595, “Advancement of multi-target drug discoveries and promising applications in the field of Alzheimer's disease” (Eur J Med Chem, 2019).
Values belong to the compound of their own block, whether it stands above or below them.

Tests used:
Cholinesterase [1] = biological target: T1, Cholinesterase (Homo sapiens, UniProt P06276); assay: Inhibition of BChE (unknown origin)
Acetylcholinesterase = Acetylcholinesterase (Homo sapiens, UniProt P22303); assay: Inhibition of human AChE
[2] = biological target: Microtubule-associated protein tau (Homo sapiens) (UniProt P10636); assay: Inhibition of tau aggregation (unknown origin) at 20 uM
[3] = biological target: Amyloid-beta precursor protein (Homo sapiens) (UniProt P05067); assay: Inhibition of self-induced amyloid beta (1 to 42) (unknown origin) aggregation at 20 uM
Cholinesterase [4] = biological target: T1, Cholinesterase; assay: Inhibition of human BuChE
[5] = biological target: Glutamate [NMDA] receptor; assay: Inhibition of NMDA receptor (unknown origin); assay type: protein-complex assay, Homo sapiens
SK-N-SH = assay: Inhibition of apoptosis in human SK-N-SH cells assessed as […] in cleaved caspase-3 by Western blot analysis; assay type: functional, cell-based
Cholinesterase [6] = biological target: T1, Cholinesterase; assay: Inhibition of BuChE (unknown origin) assessed as decrease in thiocholine accumulation by spectrophotometry
Mus musculus = assay: In-vivo inhibition of NMDA receptor in mouse assessed as reduction in NMDA-induced convulsions administered intraperitoneally 40 mins before NMDA injection; assay type: functional, organism-based
[7] = Inhibition of calcium channel in rat ileum intestine assessed as reduction in Ca-induced contraction; assay type: tissue-based
Beta-secretase 1 = Beta-secretase 1 (Homo sapiens, UniProt P56817); assay: Inhibition of human recombinant BACE-1 using 19F peptide as substrate measured after 5 hrs by fluorescence method
[8] = biological target: Glycogen synthase kinase-3 beta (Homo sapiens, UniProt P49841); assay: Inhibition of human recombinant GSK-3beta using 19F peptide as substrate measured after 1.5 hrs by fluorescence method
Glycogen synthase kinase-3 beta, sequence (P49841 whole entry): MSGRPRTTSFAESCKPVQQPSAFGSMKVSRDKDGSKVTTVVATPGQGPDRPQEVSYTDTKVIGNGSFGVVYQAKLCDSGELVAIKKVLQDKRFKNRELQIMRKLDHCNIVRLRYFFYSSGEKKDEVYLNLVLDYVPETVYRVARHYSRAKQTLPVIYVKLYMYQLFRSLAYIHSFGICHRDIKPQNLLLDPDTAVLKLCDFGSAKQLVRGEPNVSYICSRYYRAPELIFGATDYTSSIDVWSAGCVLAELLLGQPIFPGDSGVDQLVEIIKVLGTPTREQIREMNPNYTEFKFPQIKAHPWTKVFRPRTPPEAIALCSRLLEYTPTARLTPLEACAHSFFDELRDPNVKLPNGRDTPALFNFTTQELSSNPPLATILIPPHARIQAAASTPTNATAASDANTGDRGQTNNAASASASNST

T1 sequence (P06276 whole entry): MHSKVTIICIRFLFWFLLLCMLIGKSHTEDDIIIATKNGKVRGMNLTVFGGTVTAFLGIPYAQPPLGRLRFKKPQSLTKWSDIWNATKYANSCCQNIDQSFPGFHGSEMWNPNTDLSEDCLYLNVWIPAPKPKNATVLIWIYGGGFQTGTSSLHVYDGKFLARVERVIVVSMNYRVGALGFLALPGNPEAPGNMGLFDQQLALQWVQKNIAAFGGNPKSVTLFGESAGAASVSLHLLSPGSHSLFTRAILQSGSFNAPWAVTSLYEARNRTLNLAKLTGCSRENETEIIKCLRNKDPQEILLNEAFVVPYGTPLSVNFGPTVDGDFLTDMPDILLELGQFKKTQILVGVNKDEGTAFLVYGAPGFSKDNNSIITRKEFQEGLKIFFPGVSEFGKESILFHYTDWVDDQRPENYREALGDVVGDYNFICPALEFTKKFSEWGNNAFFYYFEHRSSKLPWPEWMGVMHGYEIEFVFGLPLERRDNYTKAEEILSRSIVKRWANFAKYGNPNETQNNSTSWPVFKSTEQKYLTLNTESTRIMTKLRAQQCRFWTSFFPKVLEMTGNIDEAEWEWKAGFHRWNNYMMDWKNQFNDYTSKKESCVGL
Acetylcholinesterase, sequence (P22303 whole entry): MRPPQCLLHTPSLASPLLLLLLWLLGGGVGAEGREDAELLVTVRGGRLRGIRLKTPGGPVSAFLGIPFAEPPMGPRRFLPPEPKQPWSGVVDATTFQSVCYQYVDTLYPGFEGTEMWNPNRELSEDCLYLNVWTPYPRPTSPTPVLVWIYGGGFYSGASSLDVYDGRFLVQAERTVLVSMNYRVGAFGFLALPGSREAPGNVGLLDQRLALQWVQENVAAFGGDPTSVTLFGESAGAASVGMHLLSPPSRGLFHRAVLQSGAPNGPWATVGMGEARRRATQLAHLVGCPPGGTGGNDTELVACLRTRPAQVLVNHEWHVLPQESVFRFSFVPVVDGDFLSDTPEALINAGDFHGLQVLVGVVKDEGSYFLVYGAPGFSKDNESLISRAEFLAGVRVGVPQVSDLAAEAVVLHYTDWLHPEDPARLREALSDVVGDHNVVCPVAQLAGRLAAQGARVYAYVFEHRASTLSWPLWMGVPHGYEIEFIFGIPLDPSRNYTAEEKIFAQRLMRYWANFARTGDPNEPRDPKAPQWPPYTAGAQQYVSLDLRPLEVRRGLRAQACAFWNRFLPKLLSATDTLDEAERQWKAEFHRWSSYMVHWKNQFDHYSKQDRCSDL
Amyloid-beta precursor protein (Homo sapiens), sequence (P05067 whole entry): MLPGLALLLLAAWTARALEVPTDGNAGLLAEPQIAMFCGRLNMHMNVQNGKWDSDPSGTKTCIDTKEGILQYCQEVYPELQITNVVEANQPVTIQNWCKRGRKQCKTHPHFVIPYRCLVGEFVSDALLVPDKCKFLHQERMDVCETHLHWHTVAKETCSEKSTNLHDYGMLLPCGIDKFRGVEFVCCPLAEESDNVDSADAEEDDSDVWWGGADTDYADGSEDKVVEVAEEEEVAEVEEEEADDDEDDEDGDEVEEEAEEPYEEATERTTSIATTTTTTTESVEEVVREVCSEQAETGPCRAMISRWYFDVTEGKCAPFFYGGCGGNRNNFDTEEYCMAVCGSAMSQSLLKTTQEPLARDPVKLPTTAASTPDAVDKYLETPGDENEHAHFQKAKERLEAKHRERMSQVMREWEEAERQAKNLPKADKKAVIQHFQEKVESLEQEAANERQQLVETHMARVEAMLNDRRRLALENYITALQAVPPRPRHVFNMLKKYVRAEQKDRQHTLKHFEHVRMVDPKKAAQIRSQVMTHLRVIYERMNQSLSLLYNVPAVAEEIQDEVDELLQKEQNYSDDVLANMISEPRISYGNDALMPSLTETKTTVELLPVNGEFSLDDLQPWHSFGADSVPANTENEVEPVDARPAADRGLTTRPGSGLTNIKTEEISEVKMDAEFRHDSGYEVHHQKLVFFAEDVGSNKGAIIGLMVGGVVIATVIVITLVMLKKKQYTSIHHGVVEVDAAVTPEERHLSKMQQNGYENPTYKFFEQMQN
Microtubule-associated protein tau (Homo sapiens), sequence (P10636 whole entry): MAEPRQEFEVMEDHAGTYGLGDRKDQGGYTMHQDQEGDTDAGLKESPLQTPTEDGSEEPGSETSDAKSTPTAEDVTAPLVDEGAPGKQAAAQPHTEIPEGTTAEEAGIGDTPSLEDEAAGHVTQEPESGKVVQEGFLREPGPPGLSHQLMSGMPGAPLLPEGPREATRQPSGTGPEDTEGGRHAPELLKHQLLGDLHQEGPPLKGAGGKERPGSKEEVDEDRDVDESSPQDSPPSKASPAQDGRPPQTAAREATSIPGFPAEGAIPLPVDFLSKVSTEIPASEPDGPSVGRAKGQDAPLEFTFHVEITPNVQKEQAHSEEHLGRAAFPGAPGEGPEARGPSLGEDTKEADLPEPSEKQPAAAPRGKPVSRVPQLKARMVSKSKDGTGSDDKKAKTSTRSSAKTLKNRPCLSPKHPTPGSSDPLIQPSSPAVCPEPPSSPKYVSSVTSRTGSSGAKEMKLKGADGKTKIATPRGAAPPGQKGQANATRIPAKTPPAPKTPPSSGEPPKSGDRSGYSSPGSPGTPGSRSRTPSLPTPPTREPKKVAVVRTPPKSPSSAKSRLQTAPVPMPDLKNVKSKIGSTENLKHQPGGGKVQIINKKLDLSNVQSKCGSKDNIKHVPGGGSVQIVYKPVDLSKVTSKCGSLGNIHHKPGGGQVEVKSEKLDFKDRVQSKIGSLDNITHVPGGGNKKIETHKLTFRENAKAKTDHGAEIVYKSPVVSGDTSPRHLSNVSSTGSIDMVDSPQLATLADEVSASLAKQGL
Beta-secretase 1, sequence (P56817 whole entry): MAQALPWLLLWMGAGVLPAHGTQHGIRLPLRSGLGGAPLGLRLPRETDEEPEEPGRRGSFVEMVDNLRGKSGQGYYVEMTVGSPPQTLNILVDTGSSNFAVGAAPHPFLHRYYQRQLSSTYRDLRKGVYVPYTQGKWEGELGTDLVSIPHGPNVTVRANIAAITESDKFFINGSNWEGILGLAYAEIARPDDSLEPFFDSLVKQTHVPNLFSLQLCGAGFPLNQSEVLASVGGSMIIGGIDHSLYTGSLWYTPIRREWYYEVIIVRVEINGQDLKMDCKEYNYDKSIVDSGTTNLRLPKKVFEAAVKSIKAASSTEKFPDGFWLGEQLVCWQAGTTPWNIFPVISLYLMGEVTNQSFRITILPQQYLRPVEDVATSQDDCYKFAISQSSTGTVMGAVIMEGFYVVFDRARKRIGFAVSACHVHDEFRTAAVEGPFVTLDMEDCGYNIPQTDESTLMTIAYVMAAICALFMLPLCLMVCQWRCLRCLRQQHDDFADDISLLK

SMILES: CCN1CCc2c(c3ccccc3n2CCC(=O)N2c3ccccc3Sc3ccccc32)C1
IC50 (Cholinesterase [1]): 0.52 µM

SMILES: CC[C@@H](CN1CCCC1=O)C(=O)NCCCCCCCNc1c2c(nc3cc(Cl)ccc13)C[C@H]1C=C(C)C[C@@H]2C1
IC50 (Acetylcholinesterase): 0.0042 µM
inhibition [2]: 54%
inhibition [3]: 36%
IC50 (Cholinesterase [4]): 0.232 µM

SMILES: Cc1ccc2[nH]c3c(c2c1)CN(CCCCCCN1CCc2[nH]c4ccc(C)cc4c2C1)CC3
IC50 (Acetylcholinesterase): 0.195 µM
IC50 [5]: 11 µM

SMILES: C#CCN[C@@H]1CCc2ccc(OC(=O)N(C)CC)cc21 [LADOSTIGIL]
IC50 (SK-N-SH): 1050 µM

SMILES: Cc1ccc2c(c1)c1c(n2CCc2ccc(C)nc2)CCN(C)C1 [LATREPIRDINE]
IC50 (Cholinesterase [6]): 7900 µM
EC50 (Mus musculus): 42 mg/kg
IC50 [7]: 57 µM

IC50 (Beta-secretase 1): 0.3 µM
IC50 [8]: 0.7 µM
SMILES: O=c1[nH]c(=O)c2cc[nH]c2[nH]1 [7-DEAZAXANTHINE]
